Data published in patent publication US20250025443A1, “COMPOUNDS AND METHODS FOR TREATING CORONA VIRUSES” (CLEAR CREEK BIO, INC., priority 2021, published 2025).
Read-outs that look alike come from different tables or passages of the source.

Target: SARS-CoV-2 Papain-Like Protease (PLpro) (Severe acute respiratory syndrome coronavirus 2 (2019-nCoV) (SARS-CoV-2), UniProt P0DTD1)
Assay: biochemical
Settings: read-out: PLpro IC50
[1] = PLpro enzymatic fluorescence assay, class symbols
[2] = SARS-CoV-2 PLpro enzymatic fluorescence assay

`COc1cccc(C2(NC(=O)c3cc(OCCN(C)C)ccc3C)CC2)c1` [Compound 278, 5-(2-(Dimethylamino)ethoxy)-N-(1-(3-methoxyphenyl)cyclopropyl)-2-methylbenzamide] was tested. Which IC50 [1] did it give?
Its IC50 is greater than 5000 nM.

For `Cc1ccc(OC[C@@H]2CCN2C)cc1C(=O)NC1(c2cc(-c3ccc(C(C)N4CCCC4)s3)cc3ncccc23)CC1` (stereo partly drawn) [Compound 780, 2-Methyl-5-(((S)-1-methylazetidin-2-yl)methoxy)-N-(1-(7-(5-(1-(pyrrolidin-1-yl)ethyl)thiophen-2-yl)quinolin-5-yl)cyclopropyl)benzamide], which IC50 [1] is on record?
The IC50 was less than 100 nM.

With `CCCN(CCC)c1cc(C2(NC(=O)c3cc(OC[C@@H]4CCN4C)ccc3C)CC2)c2cccnc2c1` [Compound 771, (S)—N-(1-(7-(Dipropylamino)quinolin-5-yl)cyclopropyl)-2-methyl-5-((1-methylazetidin-2-yl)methoxy)benzamide] as the compound, how does the IC50 [1] read?
The IC50 was less than 100 nM.

Which IC50 [2] does the source give for `Cc1ccc(OCC2CCN2C(C)C)cc1C(=O)NC1(c2cccc3ccccc23)CC1` (stereo not drawn) [Compound 323, 5-((1-Isopropylazetidin-2-yl)methoxy)-2-methyl-N-(1-(naphthalen-1-yl)cyclopropyl)benzamide] here?
Its IC50 is less than 100 nM.

Which IC50 [1] does the source give for `C=Cc1cc(C2(NC(=O)c3cc(OC[C@@H]4CCN4C)c(NC)cc3C)CC2)c2cccnc2c1` [Compound 745, (S)-2-Methyl-4-(methylamino)-5-((1-methylazetidin-2-yl)methoxy)-N-(1-(7-vinylquinolin-5-yl)cyclopropyl)benzamide] here?
The IC50 was less than 100 nM.

For `Cc1ccc(OC2CCNCC2)cc1C(=O)N[C@H](C)c1cccc2ccccc12` [Compound 162, (R)-2-Methyl-N-(1-(naphthalen-1-yl)ethyl)-5-(piperidin-4-yloxy)benzamide], which IC50 [2] is on record?
Its IC50 is 100 to 1000 nM.

With `Cc1ccc(OCC2CCN2c2ccccc2)cc1C(=O)NC1(c2cccc3ccccc23)CC1` (stereo not drawn) [Compound 331, 2-Methyl-N-(1-(naphthalen-1-yl)cyclopropyl)-5-((1-phenylazetidin-2-yl)methoxy)benzamide] as the compound, how does the IC50 [2] read?
The IC50 was greater than 5000 nM.

Which IC50 [1] does the source give for `C=C(c1cc(C2(NC(=O)c3cc(OC[C@@H]4CCN4C)ccc3C)CC2)c2cccnc2c1)C(F)(F)F` [Compound 650, (S)-2-Methyl-5-((1-methylazetidin-2-yl)methoxy)-N-(1-(7-(3,3,3-trifluoroprop-1-en-2-yl)quinolin-5-yl)cyclopropyl)benzamide] here?
The IC50 was less than 100 nM.

`CN[C@@H](C)COc1ccc(C)c(C(=O)NC2(c3cc(OC)cc4ncccc34)CC2)c1` [Compound 560, (S)-N-(1-(7-Methoxyquinolin-5-yl)cyclopropyl)-2-methyl-5-(2-(methylamino)propoxy)benzamide] was tested. Which IC50 [2] did it give?
The IC50 was less than 100 nM.

How did the IC50 [1] turn out when `Cc1ccc(OCC2CCN2C)cc1C(=O)NC1(c2cc(-c3ccc(Cl)s3)cc3ccccc23)CC1` (stereo not drawn) [Compound 514, N-(1-(3-(5-Chlorothiophen-2-yl)naphthalen-1-yl)cyclopropyl)-2-methyl-5-((1-methylazetidin-2-yl)methoxy)benzamide] was run?
Its IC50 is less than 100 nM.

For `Cc1ccc2c(C3(NC(=O)c4cc(OC[C@@H]5CCN5C)ccc4C)CC3)cc(O)cc2n1` [Compound 809, (S)-N-(1-(7-Hydroxy-2-methylquinolin-5-yl)cyclopropyl)-2-methyl-5-((1-methylazetidin-2-yl)methoxy)benzamide], which IC50 [1] is on record?
Its IC50 is less than 100 nM.

With `Cc1ccc(NC2CNC2)cc1C(=O)NC(C)c1cccc2c1OCCO2` (stereo not drawn) [Compound 168, 5-(Azetidin-3-ylamino)-N-(1-(2,3-dihydrobenzo[b][1,4]dioxin-5-yl)ethyl)-2-methylbenzamide] as the compound, how does the IC50 (PLpro 6.25 nM, substrate 25 μM, 60 min at 25° C., for more potent compounds PLpro 1 nM, 120 min) read?
Its IC50 is greater than 5000 nM.

Which IC50 [2] does the source give for `Cc1ccc(OCCN(C)C)cc1C(=O)NC1(c2ccccc2Br)CC1` [Compound 251, N-(1-(2-Bromophenyl)cyclopropyl)-5-(2-(dimethylamino)ethoxy)-2-methylbenzamide] here?
The IC50 was 100 to 1000 nM.

`Cc1ccc(OC[C@@H]2CCN2)cc1C(=O)NC1(c2cc(/C=C/C3CC3)cc3ncccc23)CC1` [Compound 667, (S,E)-5-(Azetidin-2-ylmethoxy)-N-(1-(7-(2-cyclopropylvinyl)quinolin-5-yl)cyclopropyl)-2-methylbenzamide] was tested. Which IC50 [1] did it give?
The IC50 was less than 100 nM.

With `Cc1ccc(OC2CCN(C(=O)OC(C)(C)C)CC2)cc1C(=O)N[C@H](C)c1cccc2ccccc12` [Compound 164, (R)-tert-Butyl 4-(4-methyl-3-((1-(naphthalen-1-yl)ethyl)carbamoyl)phenoxy)piperidine-1-carboxylate] as the compound, how does the IC50 [2] read?
The IC50 was 1000 to 5000 nM.

With `Cc1ccc(-c2cc(C3(NC(=O)c4cc(OC[C@@H]5CCN5C)ccc4C)CC3)c3cccnc3c2)o1` [Compound 654, (S)-2-Methyl-5-((1-methylazetidin-2-yl)methoxy)-N-(1-(7-(5-methylfuran-2-yl)quinolin-5-yl)cyclopropyl)benzamide] as the compound, how does the IC50 [1] read?
The IC50 was less than 100 nM.

How did the IC50 [1] turn out when `CCc1cc(C2(NC(=O)c3cc(OCC4CCN4C)ccc3C)CC2)c2ccccc2c1` (stereo not drawn) [Compound 516, N-(1-(3-Ethylnaphthalen-1-yl)cyclopropyl)-2-methyl-5-((1-methylazetidin-2-yl)methoxy)benzamide] was run?
Its IC50 is less than 100 nM.

`Cc1ccc(O[C@@H]2CCCC[C@H]2N)cc1CNC1(c2cccc3ccccc23)CC1` (single isomer, unassigned) [Compound 429] was tested. Which IC50 [1] did it give?
The IC50 was 100 to 1000 nM.

With `Cc1ccc(OC[C@@H]2CCN2)cc1C(=O)NC1(c2cc(-c3cn[nH]c3)cc3ncccc23)CC1` [Compound 642, (S)-N-(1-(7-(1H-Pyrazol-4-yl)quinolin-5-yl)cyclopropyl)-5-(azetidin-2-ylmethoxy)-2-methylbenzamide] as the compound, how does the IC50 [1] read?
The IC50 was less than 100 nM.

`Cc1cc2[nH]ccc2cc1C(=O)NC1(c2cccc3ccccc23)CC1` [Compound 223, 6-Methyl-N-(1-(naphthalen-1-yl)cyclopropyl)-1H-indole-5-carboxamide] was tested. Which IC50 [2] did it give?
The IC50 was 100 to 1000 nM.

`Cc1cc2cc(CN(C)C)[nH]c2cc1C(=O)NC1(c2cccc3ccccc23)CC1` [Compound 173, 2-((Dimethylamino)methyl)-5-methyl-N-(1-(naphthalen-1-yl)cyclopropyl)-1H-indole-6-carboxamide] was tested. Which IC50 [2] did it give?
The IC50 was 100 to 1000 nM.

Which IC50 [2] does the source give for `Cc1cc(C2(NC(=O)c3cc(OCC(C)N)ccc3C)CC2)c2cccnc2c1` (stereo not drawn) [Compound 497, 5-(2-Aminopropoxy)-2-methyl-N-(1-(7-methylquinolin-5-yl)cyclopropyl)benzamide] here?
The IC50 was less than 100 nM.

Which IC50 [2] does the source give for `Cc1ccc(OC[C@@H]2CCN2C)cc1C(=O)NC1(c2cccc3cc(F)ccc23)CC1` [Compound 389, (S)-N-(1-(6-Fluoronaphthalen-1-yl)cyclopropyl)-2-methyl-5-((1-methylazetidin-2-yl)methoxy)benzamide] here?
The IC50 was less than 100 nM.

Which IC50 [2] does the source give for `Cc1cc2c(cc1C(=O)NC1(c3cccc4ccccc34)CC1)NCC2` [Compound 207, 5-Methyl-N-(1-(naphthalen-1-yl)cyclopropyl)indoline-6-carboxamide] here?
The IC50 was 100 to 1000 nM.

`Cc1ccc(OC[C@@H]2CCN2C)cc1C(=O)NC1(c2cc(NS(C)(=O)=O)cc3ncccc23)CC1` [Compound 786, (S)-2-Methyl-5-((1-methylazetidin-2-yl)methoxy)-N-(1-(7-(methylsulfonamido)quinolin-5-yl)cyclopropyl)benzamide] was tested. Which IC50 [2] did it give?
Its IC50 is less than 100 nM.

With `Cc1cc2ccn(C)c2cc1C(=O)NC1(c2cccc3ccccc23)CC1` [Compound 201, 1,5-Dimethyl-N-(1-(naphthalen-1-yl)cyclopropyl)-1H-indole-6-carboxamide] as the compound, how does the IC50 [2] read?
The IC50 was 100 to 1000 nM.

With `[2H]C([2H])(Oc1ccc(C)c(C(=O)NC2(c3cc(OC)cc4ncccc34)CC2)c1)[C@@H]1CCN1C` [Compound 797, (S)-N-(1-(7-Methoxyquinolin-5-yl)cyclopropyl)-2-methyl-5-((1-methylazetidin-2-yl)methoxy-d2)benzamide] as the compound, how does the IC50 [1] read?
Its IC50 is less than 100 nM.

How did the IC50 [2] turn out when `Cc1cc2cc(CN3CCOCC3)[nH]c2cc1C(=O)N[C@H](C)c1cccc2ccccc12` [Compound 206, (R)-5-Methyl-2-(morpholinomethyl)-N-(1-(naphthalen-1-yl)ethyl)-1H-indole-6-carboxamide] was run?
The IC50 was 1000 to 5000 nM.

With `Cc1cc2nc[nH]c2cc1C(=O)N[C@H](C)c1cccc(-c2ccc(CN[C@H]3CC[C@@H](O)C3)s2)c1` [Compound 134, N-((R)-1-(3-(5-((((1S,3R)-3-hydroxycyclopentyl)amino)methyl)thiophen-2-yl)phenyl)ethyl)-5-methyl-1H-benzo[d]imidazole-6-carboxamide] as the compound, how does the IC50 [2] read?
The IC50 was 100 to 1000 nM.

Which IC50 [2] does the source give for `Cc1ccc(OC[C@H]2CCN2C)cc1C(=O)NC1(c2cccc3ncccc23)CC1` [Compound 390, (R)-2-Methyl-5-((1-methylazetidin-2-yl)methoxy)-N-(1-(quinolin-5-yl)cyclopropyl)benzamide] here?
Its IC50 is less than 100 nM.

Which IC50 [2] does the source give for `Cc1ccc(OCC2CCN2C)cc1C(=O)NC1(c2cc(C(C)C)cc3ccccc23)CC1` (stereo not drawn) [Compound 521, N-(1-(3-Isopropylnaphthalen-1-yl)cyclopropyl)-2-methyl-5-((1-methylazetidin-2-yl)methoxy)benzamide] here?
Its IC50 is less than 100 nM.

How did the IC50 [2] turn out when `Cc1ccc(OCCN(C)C)cc1C(=O)NC1(c2ccccc2C(C)C)CC1` [Compound 344, 5-(2-(Dimethylamino)ethoxy)-N-(1-(2-isopropylphenyl)cyclopropyl)-2-methylbenzamide] was run?
Its IC50 is 100 to 1000 nM.

Which IC50 [2] does the source give for `Cc1ccc(Nc2cn[nH]c2)cc1C(=O)N[C@H](C)c1cccc(-c2ccc(CN[C@H]3CC[C@@H](O)C3)s2)c1` [Compound 140, 5-((1H-Pyrazol-4-yl)amino)-N-((R)-1-(3-(5-((((1S,3R)-3-hydroxycyclopentyl)amino)methyl)thiophen-2-yl)phenyl)ethyl)-2-methylbenzamide] here?
Its IC50 is 1000 to 5000 nM.

How did the IC50 [1] turn out when `Cc1ccc(OCC2CCN2C)cc1C(=O)NC1(c2c(C)ccc3ccccc23)CC1` (stereo not drawn) [Compound 458, 2-Methyl-5-((1-methylazetidin-2-yl)methoxy)-N-(1-(2-methylnaphthalen-1-yl)cyclopropyl)benzamide] was run?
Its IC50 is less than 100 nM.

For `C[C@@H](NC(=O)c1ccc2cn[nH]c2c1)c1cccc2ccccc12` [Compound 124, (R)-N-(1-(naphthalen-1-yl)ethyl)-1H-indazole-6-carboxamide], which IC50 [2] is on record?
Its IC50 is greater than 5000 nM.

`CC(=O)c1ccc(-c2cc(C3(NC(=O)c4cc(OC[C@@H]5CCN5C)ccc4C)CC3)c3cccnc3c2)s1` [Compound 657, (S)-N-(1-(7-(5-Acetylthiophen-2-yl)quinolin-5-yl)cyclopropyl)-2-methyl-5-((1-methylazetidin-2-yl)methoxy)benzamide] was tested. Which IC50 [1] did it give?
The IC50 was less than 100 nM.
